Literature values, collected in patent USRE31980E, “Olefinic derivatives of amino acids” (Merrell Toraude et Compagnie, priority 1983, dated 1985).

How the values were obtained:
[1] = tested on: γ-aminobutyric acid transaminase
[2] = tested on: brain level of γ-aminobutyric acid; conditions: in vivo

Row | Compound | inhibition of γ-aminobutyric acid transaminase (kind of inhibition), literature [1] | duration of the reversible effect (elevated brain levels of γ-aminobutyric acid), literature [2]
1 | NCC#CC(=O)O [4-aminotetrolic acid] | competitive reversible inhibitor | –
2 | CCCC(CCC)C(=O)O [n-dipropylacetate] | competitively inhibiting | about 2 hours
